The results in this text go back to ChEMBL document CHEMBL2331414, “N-1, C-3 substituted indoles as 5-LOX inhibitors--in vitro enzyme immunoaasay, mass spectral and molecular docking investigations” (Bioorg Med Chem Lett, 2013).

The structures appear in SMILES notation.

For assay [1], the target named is T1, Polyunsaturated fatty acid 5-lipoxygenase (Homo sapiens, UniProt P09917).
T1 sequence (P09917 whole entry): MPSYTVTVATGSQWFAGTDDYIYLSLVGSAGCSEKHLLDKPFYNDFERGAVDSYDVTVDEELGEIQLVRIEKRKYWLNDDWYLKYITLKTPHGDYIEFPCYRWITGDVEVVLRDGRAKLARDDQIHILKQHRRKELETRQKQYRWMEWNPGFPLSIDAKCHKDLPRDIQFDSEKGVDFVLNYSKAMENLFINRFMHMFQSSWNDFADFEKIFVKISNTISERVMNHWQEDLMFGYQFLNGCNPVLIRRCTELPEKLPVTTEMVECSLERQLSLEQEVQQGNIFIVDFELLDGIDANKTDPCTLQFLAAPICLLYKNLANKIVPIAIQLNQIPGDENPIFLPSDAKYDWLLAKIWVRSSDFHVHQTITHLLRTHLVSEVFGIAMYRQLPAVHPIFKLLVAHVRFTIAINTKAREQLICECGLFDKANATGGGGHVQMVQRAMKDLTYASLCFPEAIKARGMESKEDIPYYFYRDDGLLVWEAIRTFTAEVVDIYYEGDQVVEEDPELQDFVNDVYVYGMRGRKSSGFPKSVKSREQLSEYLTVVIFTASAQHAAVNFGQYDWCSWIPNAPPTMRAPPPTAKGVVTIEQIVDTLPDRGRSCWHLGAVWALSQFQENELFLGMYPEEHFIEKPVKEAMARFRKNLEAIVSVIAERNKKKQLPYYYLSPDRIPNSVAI
Briefly: Inhibition of 5LOX (unknown origin) using arachidonic acid as substrate after 5 mins by spectrophotometric analysis.

For assay [2], the target named is T2, Polyunsaturated fatty acid 5-lipoxygenase (Homo sapiens) (UniProt P09917).
T2 sequence (whole entry): T1 sequence (P09917 whole entry)
Put plainly: Inhibition of 5LOX (unknown origin) using arachidonic acid as substrate at 0.01 uM after 5 mins by spectrophotometric analysis.

The target in assay [3] is T2, Polyunsaturated fatty acid 5-lipoxygenase (Homo sapiens). Briefly: Inhibition of 5LOX (unknown origin) using arachidonic acid as substrate at 0.1 uM after 5 mins by spectrophotometric analysis.
Assay [4] shares this target. Put plainly: Inhibition of 5LOX (unknown origin) using arachidonic acid as substrate at 10 uM after 5 mins by spectrophotometric analysis.
The target is the same in assay [5]. Put plainly: Inhibition of 5LOX (unknown origin) using arachidonic acid as substrate at 1 uM after 5 mins by spectrophotometric analysis.

`Cc1ccc(S(=O)(=O)n2cc(C(=O)C(=O)N3CCCC3)c3ccccc32)cc1` registered a half-inhibitory concentration (IC50) in assay [1] of 600 nM. The inhibition came to 0.9% in assay [2], 27.8% in assay [3], 95.4% in assay [4] and 63.8% in assay [5].
With `COc1ccc2c(c1)c(C(=O)C(=O)N1CCOCC1)cn2OS(=O)(=O)c1ccc(C)cc1`, in assay [1], half-maximal inhibition (IC50) was put at 1000 nM. Besides, the inhibition is 4.7% in assay [2], 22% in assay [3], 59.2% in assay [4] and 53.8% in assay [5].
The like results for `O=C(C(=O)N1CCCC1)c1cn(C(=O)c2ccccc2)c2ccccc12` were, in that order, 1000 nM, 6.8%, 17.4%, 59.6% and 54.2%.
On the same counts, the results for `O=C(C(=O)N1CCOCC1)c1cn(C(=O)/C=C/c2ccccc2)c2ccccc12` are 5000 nM, 2.5%, 21.1%, 59.2% and 40.7%.
For the molecule `COc1ccc2c(c1)c(C(=O)C(=O)N1CCCC1)cn2C(=O)/C=C/c1ccccc1`, the midpoint of inhibition in assay [1], the IC50, lay at 1000 nM. For the same molecule, the inhibition came out at 5.9% in assay [2], 25.6% in assay [3], 68.6% in assay [4] and 54.5% in assay [5].
